Structures are written as SMILES. Where only a bound is given, the exact number is not on record here.

The subject of the first experiment is 8XTBD luciferase reporter (YAP) in HEK293T cells. Nature of the experiment: YAP Reporter Assay. It counts as cell-based. Particulars: Homo sapiens, HEK-293T, 24 h, read-out: Firefly Luciferase IC50 (μM). (In general: A reporter such as luciferase makes a cellular process visible.)
For `CN(C)C(=O)c1nnc(-c2ccccc2Nc2ccc(C(F)(F)F)cc2)o1` [Compound 194, N,N-dimethyl-5-(2-((4-(trifluoromethyl)phenyl)amino)phenyl)-1,3,4-oxadiazole-2-carboxamide], the IC50 – broadly, the midpoint of a concentration-inhibition curve – lay within 1 to 5 µM. Consider `CCOC(=O)C(O)(C(=O)OCC)c1nnc(-c2ccccc2Nc2ccc(C(F)(F)F)cc2)o1` [Compound 200, diethyl 2-hydroxy-2-(5-(2-((4-(trifluoromethyl)phenyl)amino)phenyl)-1,3,4-oxadiazol-2-yl)malonate], for which the IC50 lay in the range of 0.1 to 1 µM.

Staying with this experiment, now noted: Homo sapiens, HEK-293T; HEK293T cells stably transfected with 8XTBD luciferase reporter and pRLTK; 24-hr incubation; top concentration 3 μM; read-out: Firefly Luciferase IC50.
Regarding `CC(C)(C#N)c1nnc(-c2ccccc2Nc2ccc(C(F)(F)F)cc2)o1` [Compound 164, 2-methyl-2-(5-(2-((4-(trifluoromethyl)phenyl)amino)phenyl)-1,3,4-oxadiazol-2-yl)propanenitrile], the IC50 was less than 0.1 µM. Take `CC1(c2nnc(-c3ccccc3Nc3ccc(C(F)(F)F)cc3)o2)COC1` [Compound 183, 2-(5-(3-methyloxetan-3-yl)-1,3,4-oxadiazol-2-yl)-N-(4-(trifluoromethyl)phenyl)aniline]: the IC50 is 0.1 to 1 µM. On the same count and under the same terms, for `CC1(c2nnc(-c3ccccc3Nc3ccc(C(F)(F)F)cc3)o2)CCCO1` (stereo not shown) [Compound 178, 2-(5-(2-methyltetrahydrofuran-2-yl)-1,3,4-oxadiazol-2-yl)-N-(4-(trifluoromethyl)phenyl)aniline] the value was less than 0.1 µM; for `O=C(O)Cc1nnc(-c2ccccc2Nc2ccc(C(F)(F)F)cc2)o1` [Compound 119, 2-(5-(2-((4-(trifluoromethyl)phenyl)amino)phenyl)-1,3,4-oxadiazol-2-yl)acetic acid], 0.1 to 1 µM; for `O=C1NC(c2nnc(-c3ccccc3Nc3ccc(C(F)(F)F)cc3)o2)CO1` (stereo not shown) [Compound 17, 4-(5-(2-((4-(trifluoromethyl)phenyl)amino)phenyl)-1,3,4-oxadiazol-2-yl)oxazolidin-2-one], less than 0.1 µM. For the compound `Cc1ccc(S(=O)(=O)OC2(c3nnc(-c4ccccc4Nc4ccc(C(F)(F)F)cc4)o3)CC2)cc1` [Compound 53, 1-(5-(2-((4-(trifluoromethyl)phenyl)amino)phenyl)-1,3,4-oxadiazol-2-yl)cyclo propyl 4-methylbenzenesulfonate], the IC50 fell in the range of 0.1 to 1 µM. With `FC(F)(F)c1ccc(Nc2ccccc2-c2nnc(C3CCNC3)o2)cc1` (stereo not shown) [Compound 175, 2-(5-(pyrrolidin-3-yl)-1,3,4-oxadiazol-2-yl)-N-(4-(trifluoromethyl)phenyl)aniline], the IC50 is 0.1 to 1 µM. Still for that read-out and setting: for `CNC(C)(C)c1nnc(-c2ccccc2Nc2ccc(C(F)(F)F)cc2)o1` [Compound 156, 2-(5-(2-(methylamino)propan-2-yl)-1,3,4-oxadiazol-2-yl)-N-(4-(trifluoromethyl)phenyl)aniline] the value was 0.1 to 1 µM; for `FC(F)(F)c1ccc(Nc2ccccc2-c2nnc(OC/C=C/Br)o2)cc1` [Compound 82, (E)-2-(5-((3-bromoallyl)oxy)-1,3,4-oxadiazol-2-yl)-N-(4-(trifluoromethyl)phenyl)aniline], 0.1 to 1 µM.

With `OC(c1nnc(-c2ccccc2Nc2ccc(C(F)(F)F)cc2)o1)C(F)F` (stereo not shown) [Compound 60, 2,2-difluoro-1-(5-(2-((4-(trifluoromethyl)phenyl)amino)phenyl)-1,3,4-oxadiazol-2-yl)ethanol], the IC50 is less than 0.1 µM. With `CNCC(C)c1nnc(-c2ccccc2Nc2ccc(C(F)(F)F)cc2)o1` (stereo not shown) [Compound 150, 2-(5-(1-(methylamino)propan-2-yl)-1,3,4-oxadiazol-2-yl)-N-(4-(trifluoromethyl)phenyl)aniline], the IC50 fell in the range of 0.1 to 1 µM. For the compound `NCc1nnc(-c2ccccc2Nc2ccc(C(F)(F)F)cc2)o1` [Compound 28, 2-[5-(aminomethyl)-1,3,4-oxadiazol-2-yl]-N-[4-(trifluoromethyl)phenyl]aniline], the IC50 lay within 0.1 to 1 µM.

For `CNC(=O)c1nnc(-c2ccccc2Nc2ccc(C(F)(F)F)cc2)o1` [Compound 198, N-methyl-5-(2-((4-(trifluoromethyl)phenyl)amino)phenyl)-1,3,4-oxadiazole-2-carboxamide], the IC50 was less than 0.1 µM.

On to `CS(=O)(=O)N(CCO)c1nnc(-c2ccccc2Nc2ccc(C(F)(F)F)cc2)o1` [Compound 32, N-(2-hydroxyethyl)-N-(5-(2-((4-(trifluoromethyl)phenyl)amino)phenyl)-1,3,4-oxadiazol-2-yl)methanesulfonamide], for which the IC50 lay in the range of 0.1 to 1 µM.

On to `CC(=O)c1nnc(-c2ccccc2Nc2ccc(C(F)(F)F)cc2)o1` [Compound 85, 1-(5-(2-((4-(trifluoromethyl)phenyl)amino)phenyl)-1,3,4-oxadiazol-2-yl)ethan-1-one], for which the IC50 was less than 0.1 µM.

Take `FC(F)(F)c1ccc(Nc2ccccc2-c2nnco2)cc1` [Compound 20, 2-(1,3,4-oxadiazol-2-yl)-N-[4-(trifluoromethyl)phenyl]aniline]: the IC50 was 0.1 to 1 µM. With `C#CC(C)Oc1nnc(-c2ccccc2Nc2ccc(C(F)(F)F)cc2)o1` (stereo not shown) [Compound 69, 2-(5-(but-3-yn-2-yloxy)-1,3,4-oxadiazol-2-yl)-N-(4-(trifluoromethyl)phenyl)aniline], the IC50 is less than 0.1 µM. For the compound `CNC(C)Cc1nnc(-c2ccccc2Nc2ccc(C(F)(F)F)cc2)o1` (stereo not shown) [Compound 147, 2-(5-(2-(methylamino)propyl)-1,3,4-oxadiazol-2-yl)-N-(4-(trifluoromethyl)phenyl)aniline], the IC50 was 1 to 5 µM. For the compound `CCOC(=O)Cc1nnc(-c2ccccc2Nc2ccc(C(F)(F)F)cc2)o1` [Compound 1, ethyl 2-(5-(2-((4-(trifluoromethyl)phenyl)amino)phenyl)-1,3,4-oxadiazol-2-yl) acetate], the IC50 was 0.1 to 1 µM. For `CC(C)N(C#N)CCc1nnc(-c2ccccc2Nc2ccc(C(F)(F)F)cc2)o1` [Compound 93, N-isopropyl-N-(2-(5-(2-((4-(trifluoromethyl)phenyl)amino)phenyl)-1,3,4-oxadiazol-2-yl)ethyl)cyanamide], the IC50 is 0.1 to 1 µM.

For `FC(F)(F)c1ccc(Nc2ccccc2-c2nnc(C3CCCN3)o2)cc1` (stereo not shown) [Compound 169, 2-(5-(pyrrolidin-2-yl)-1,3,4-oxadiazol-2-yl)-N-(4-(trifluoromethyl)phenyl)aniline], the IC50 lay in the range of 0.1 to 1 µM.

As for `CON(C)C(=O)C(C)(C)c1nnc(-c2ccccc2Nc2ccc(C(F)(F)F)cc2)o1` [Compound 87, N-methoxy-N,2-dimethyl-2-(5-(2-((4-(trifluoromethyl)phenyl)amino)phenyl)-1,3,4-oxadiazol-2-yl)propanamide], the IC50 is less than 0.1 µM.

`CN(C#N)CC(C)(C)c1nnc(-c2ccccc2Nc2ccc(C(F)(F)F)cc2)o1` [Compound 146, N-methyl-N-(2-methyl-2-(5-(2-((4-(trifluoromethyl)phenyl)amino)phenyl)-1,3,4-oxadiazol-2-yl)propyl)cyanamide]: the IC50 is less than 0.1 µM.

Consider `CN(C#N)Cc1nnc(-c2ccccc2Nc2ccc(C(F)(F)F)cc2)o1` [Compound 168, N-methyl-N-((5-(2-((4-(trifluoromethyl)phenyl)amino)phenyl)-1,3,4-oxadiazol-2-yl)methyl)cyanamide], for which the IC50 was less than 0.1 µM. For the compound `NC(=O)c1nnc(-c2ccccc2Nc2ccc(C(F)(F)F)cc2)o1` [Compound 15, 5-(2-((4-(trifluoromethyl)phenyl)amino)phenyl)-1,3,4-oxadiazole-2-carboxamide], the IC50 was less than 0.1 µM. `CCNCc1nnc(-c2ccccc2Nc2ccc(C(F)(F)F)cc2)o1` [Compound 100, 2-(5-((ethylamino)methyl)-1,3,4-oxadiazol-2-yl)-N-(4-(trifluoromethyl)phenyl)aniline]: the IC50 fell in the range of 0.1 to 1 µM. Still for that read-out and setting: for `CNC(=O)C1(c2nnc(-c3ccccc3Nc3ccc(C(F)(F)F)cc3)o2)CC1` [Compound 186, N-methyl-1-(5-(2-((4-(trifluoromethyl)phenyl)amino)phenyl)-1,3,4-oxadiazol-2-yl)cyclopropane-1-carboxamide] the value was 0.1 to 1 µM; for `FC(F)(F)c1ccc(Nc2ccccc2-c2nnc(-c3nn[nH]n3)o2)cc1` [Compound 48, 2-[5-(2H-tetrazol-5-yl)-1,3,4-oxadiazol-2-yl]-N-[4-(trifluoromethyl)phenyl]aniline], 1 to 5 µM; for `O=C1NCCN1c1nnc(-c2ccccc2Nc2ccc(C(F)(F)F)cc2)o1` [Compound 34, 1-(5-(2-((4-(trifluoromethyl)phenyl)amino)phenyl)-1,3,4-oxadiazol-2-yl)imidazolidin-2-one], 0.1 to 1 µM. Regarding `OCC(O)(CO)c1nnc(-c2ccccc2Nc2ccc(C(F)(F)F)cc2)o1` [Compound 201, 2-(5-(2-((4-(trifluoromethyl)phenyl)amino)phenyl)-1,3,4-oxadiazol-2-yl)propane-1,2,3-triol], the IC50 is less than 0.1 µM. Regarding `C#CCC(O)c1nnc(-c2ccccc2Nc2ccc(C(F)(F)F)cc2)o1` (stereo not shown) [Compound 124, 1-(5-(2-((4-(trifluoromethyl)phenyl)amino)phenyl)-1,3,4-oxadiazol-2-yl)but-3-yn-1-ol], the IC50 is less than 0.1 µM.

Staying with this experiment, now noted: Homo sapiens, HEK-293T; […]; 24-hr incubation; top concentration 3 μM; read-out: Firefly Luciferase IC50.
On to `C=CCOc1nnc(-c2ccccc2Nc2ccc(C(F)(F)F)cc2)o1` [Compound 84, 2-(5-(allyloxy)-1,3,4-oxadiazol-2-yl)-N-(4-(trifluoromethyl)phenyl)aniline], for which the IC50 lay in the range of 0.1 to 1 µM.

Regarding `CCNC(=O)c1nnc(-c2ccccc2Nc2ccc(C(F)(F)F)cc2)o1` [Compound 197, N-ethyl-5-(2-((4-(trifluoromethyl)phenyl)amino)phenyl)-1,3,4-oxadiazole-2-carboxamide], the IC50 is less than 0.1 µM. In the case of `OC(c1nnc(-c2ccccc2Nc2ccc(C(F)(F)F)cc2)o1)C1CC1` (stereo not shown) [Compound 49, cyclopropyl(5-(2-((4-(trifluoromethyl)phenyl)amino)phenyl)-1,3,4-oxadiazol-2-yl)methanol], the IC50 is less than 0.1 µM.

Turning to `CC(C)NC(=O)c1nnc(-c2ccccc2Nc2ccc(C(F)(F)F)cc2)o1` [Compound 196, N-isopropyl-5-(2-((4-(trifluoromethyl)phenyl)amino)phenyl)-1,3,4-oxadiazole-2-carboxamide], the IC50 was in the range of 0.1 to 1 µM.

The values above are taken from patent US11661403B2, “Oxadiazole compounds” (Vivace Therapeutics, Inc., priority 2018, dated 2023).
